Laboratory results: paper PMC10094921, “A Lipidated Single-B-Chain Derivative of Relaxin Exhibits Improved In Vitro Serum Stability without Altering Activity” (International Journal of Molecular Sciences, 2023)
Blank lines part the entries; values can stand above or below the compound they belong to. Starred links: 1 amine or outer side, 2 acyl side, 3 side chain; linkers in the order of their positions; H or OH if unused. Non-standard residues stand in square brackets, D forms with d. Residues, ends and D or L forms follow the SMILES beside them. Groups on a side chain read outwards from the residue. *: point of attachment. PEG12 = NCCOCCOCCOCCOCCOCCOCCOCCOCCOCCOCCOCCOCCC(=O)O; γGlu = O=C(O)[C@H](CCC(=O)[*:2])N[*:1]; PEG6 = NCCOCCOCCOCCOCCOCCOCCC(=O)O; Palmitoyl = CCCCCCCCCCCCCCCC(=O)*

How the values were obtained:
[1] = target: T1, 7BP protein (RXFP1 extracellular domain attached with a single TM domain) (Homo sapiens, UniProt Q9HBX9); assay: Eu-H2 relaxin competition binding in HEK-7BP cells, BSA free; conditions: HEK-293T cells stably expressing 7BP, BSA excluded from buffer, mean ± SEM, n in brackets, one-site fit, read-out: HEK-7BP Binding B.S.A. Free Eu-H2 pKi (n) (converted)
T1 construct: RXFP1 extracellular domain attached with a single TM domain instead of the native 7 TM domain; single transmembrane domain replacing the native 7 TM domain (heterologous); expressed in transfected cells; host or cells: HEK-293T cells stably expressing 7BP (HEK-7BP)
T1 sequence (Q9HBX9 1-409 limits assumed): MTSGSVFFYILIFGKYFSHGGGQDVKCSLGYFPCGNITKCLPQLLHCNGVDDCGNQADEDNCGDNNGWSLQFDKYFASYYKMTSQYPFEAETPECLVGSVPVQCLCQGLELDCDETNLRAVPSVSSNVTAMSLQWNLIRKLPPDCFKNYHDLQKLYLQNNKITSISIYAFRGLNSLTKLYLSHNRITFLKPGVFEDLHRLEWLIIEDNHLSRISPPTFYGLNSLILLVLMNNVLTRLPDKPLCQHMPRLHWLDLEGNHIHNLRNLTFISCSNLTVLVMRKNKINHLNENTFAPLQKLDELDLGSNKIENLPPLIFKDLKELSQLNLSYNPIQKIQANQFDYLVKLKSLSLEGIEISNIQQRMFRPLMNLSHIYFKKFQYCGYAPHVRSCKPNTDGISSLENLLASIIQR
Method: 3.6. HEK-7BP Binding Assays
HEK-293T cells stably expressing the 7BP protein (HEK-7BP; RXFP1 extracellular domain attached with a single TM domain instead of the native 7 TM domain [30]) were plated in 96-well plates. The medium was aspirated off, and the cells were washed with phosphate-buffered saline (PBS) before competition binding assays were performed with Eu-H2 Relaxin (RXFP1 ligand), as previously described, with the only difference being that BSA was excluded from the binding assay buffer. Competition binding curves for each peptide were performed in triplicate, and each experiment was performed independently at least three times. Fluorescent measurements were carried out on a BMG POLARstar plate reader (BMG Labtech, Melbourne, Australia). Pooled data are presented as mean ± SE of specific binding and are fitted using a one-site binding curve in GraphPad Prism version 8 (GraphPad Inc., San Diego, CA, USA). Statistical analyses were conducted using a one-way analysis of variance with uncorrected Fisher’s least significant difference (LSD) post-hoc analysis in GraphPad Prism version 8.

[2] = In vitro serum stability assay; assay type: in vitro ADME, human; conditions: 37 °C
Method: 3.7. In Vitro Serum Stability Assay
A total of 400 µL of human serum was taken, and 200 µg peptide dissolved in 100 µL of water was added to human serum at 37 °C. A total of 80 µL of samples was removed at various time points (0 min, 30 min, 60 min, 120 min, 240 min, and 480 min), and 160 µL of acetonitrile was added to precipitate plasma proteins. The solution was then centrifuged at 12,000 rpm for 15 min at 4 °C. A total of 200 µL of supernatant was taken out and mixed with 240 µL of milli-Q water, and each sample was analyzed by RP-HPLC (2 × 80 μL injection), by measuring the area under the peak at the appropriate retention time compared to the peak area of the peptide at time zero minute (100%). Data analysis (n = 3, duplicate) was performed using Prism Version 8.0.2, a non-linear-fit one-phase decay model.

[3] = test system: BJ3 human dermal myofibroblasts; assay: Myofibroblast differentiation in vitro (α-SMA expression, Western blot); assay type: cell-based
Method: 3.8. Determination of the Effects of Lipidated (L)-B7-33 on Myofibroblast Differentiation In Vitro
To determine if the lipidation of B7-33 prolonged its ability to suppress myofibroblast differentiation in vitro, the effects of the native B7-33 peptide vs. lipidated (L)-B7-33 were compared in BJ3 cells, a human dermal fibroblast cell line. BJ3 fibroblasts were used between passages 15–18 and cultured as described before. […] BJ3 cells were plated in 12-well plates at a density of 1–1.25 × 10^5 cells per well and were then either left untreated or stimulated with transforming growth factor (TGF)-β1 (T; 2 ng/mL) alone (to promote myofibroblast differentiation) or with T + B7-33 (100 ng/mL) or T + L-B7-33 (100 ng/mL) for a 14-day period, in media that was left unchanged over this time period. The cells from duplicate wells per treatment group were isolated from plates at 3-, 5-, 7-, 10- and 14-days post-T ± peptide treatment and extracted for protein using the RIPA lysis buffer (ThermoFisher Scientific; Scoresby, Victoria, Australia). These experiments were performed six independent times.
Half the cell protein (in 10 μL of RIPA buffer) from each sample (that was fully reconstituted in 20 μL of RIPA buffer) was loaded and electrophoresed in separate mini-protean 4–15% precast gels, and analyzed by Western blotting using a primary monoclonal antibody to α-SMA (42 kDa; M0851; […]; Agilent Technologies, Santa Clara, CA, USA). The equivalent loading of protein between samples was confirmed using a rabbit monoclonal glyceraldehyde 3-phosphate dehydrogenase (GAPDH) housekeeping antibody (37 kDa; 2118; 1:1000 dilution; Cell Signaling Technology; Danvers, MA, USA). Each membrane was then subjected to appropriate anti-mouse (7076) or anti-rabbit (7074) horseradish peroxidase-conjugated secondary antibodies (both at a 1:2000 dilution; Cell Signaling Technologies), before proteins were detected using the Clarity Western ECL substrate detection kit and quantified by densitometry with a ChemiDoc MP Imaging System and Image Lab v.6.0 software (both from Bio-Rad Laboratories, Hercules, CA, USA).The density of α-SMA from each sample was corrected for GAPDH protein levels and then expressed relative to the ratio that was measured from the unstimulated control group, which was expressed as 1 in each case. Representative blots of α-SMA and GAPDH were also chosen for presentation in each case.

Compound: CCCCCCCCCCCCCCCC(=O)NCCCC[C@H](NC(=O)[C@H](CCC(=O)O)NC(=O)[C@H](Cc1ccc(O)cc1)NC(=O)[C@@H](N)CCC(=O)O)C(=O)N[C@@H](CCC(=O)O)C(=O)N[C@@H](Cc1ccc(O)cc1)C(=O)N[C@@H](CCC(=O)O)C(=O)NCCOCCOCCOCCOCCOCCOCCC(=O)N[C@H](C(=O)N[C@H](C(=O)N[C@@H](CCCCN)C(=O)N[C@@H](CC(C)C)C(=O)N[C@@H](CO)C(=O)NCC(=O)N[C@@H](CCCNC(=N)N)C(=O)N[C@@H](CCC(=O)O)C(=O)N[C@@H](CC(C)C)C(=O)N[C@H](C(=O)N[C@@H](CCCNC(=N)N)C(=O)N[C@@H](C)C(=O)N[C@@H](CCC(N)=O)C(=O)N[C@H](C(=O)N[C@@H](C)C(=O)N[C@H](C(=O)N[C@@H](CO)C(=O)NCC(=O)N[C@@H](CCSC)C(=O)N[C@@H](CO)C(=O)N[C@H](C(=O)N[C@@H](Cc1c[nH]c2ccccc12)C(=O)N[C@@H](CO)C(=O)N[C@@H](CCCCN)C(=O)N[C@@H](CCCNC(=N)N)C(=O)N[C@@H](CO)C(=O)N[C@@H](CC(C)C)C(N)=O)[C@@H](C)O)[C@@H](C)CC)[C@@H](C)CC)C(C)C)[C@@H](C)CC)C(C)C [Tag-PEG6-B7-33]
Ki [1]: > 10 µM

Compound: CCCCCCCCCCCCCCCC(=O)NCCCC[C@H](NC(=O)[C@H](CCC(=O)O)NC(=O)[C@H](Cc1ccc(O)cc1)NC(=O)[C@@H](N)CCC(=O)O)C(=O)N[C@@H](CCC(=O)O)C(=O)N[C@@H](Cc1ccc(O)cc1)C(=O)N[C@@H](CCC(=O)O)C(=O)NCCOCCOCCOCCOCCC(=O)N[C@H](C(=O)N[C@H](C(=O)N[C@@H](CCCCN)C(=O)N[C@@H](CC(C)C)C(=O)N[C@@H](CO)C(=O)NCC(=O)N[C@@H](CCCNC(=N)N)C(=O)N[C@@H](CCC(=O)O)C(=O)N[C@@H](CC(C)C)C(=O)N[C@H](C(=O)N[C@@H](CCCNC(=N)N)C(=O)N[C@@H](C)C(=O)N[C@@H](CCC(N)=O)C(=O)N[C@H](C(=O)N[C@@H](C)C(=O)N[C@H](C(=O)N[C@@H](CO)C(=O)NCC(=O)N[C@@H](CCSC)C(=O)N[C@@H](CO)C(=O)N[C@H](C(=O)N[C@@H](Cc1c[nH]c2ccccc12)C(=O)N[C@@H](CO)C(=O)N[C@@H](CCCCN)C(=O)N[C@@H](CCCNC(=N)N)C(=O)N[C@@H](CO)C(=O)N[C@@H](CC(C)C)C(N)=O)[C@@H](C)O)[C@@H](C)CC)[C@@H](C)CC)C(C)C)[C@@H](C)CC)C(C)C [Tag-PEG4-B7-33]
Ki [1]: > 10 µM

Compound: CCCCCCCCCCCCCCCC(=O)N[C@@H](CCC(=O)NCCCC[C@H](NC(C)=O)C(=O)NCCOCCOCCOCCOCCOCCOCCOCCOCCOCCOCCOCCOCCC(=O)N[C@H](C(=O)N[C@H](C(=O)N[C@@H](CCCCN)C(=O)N[C@@H](CC(C)C)C(=O)N[C@@H](CO)C(=O)NCC(=O)N[C@@H](CCCNC(=N)N)C(=O)N[C@@H](CCC(=O)O)C(=O)N[C@@H](CC(C)C)C(=O)N[C@H](C(=O)N[C@@H](CCCNC(=N)N)C(=O)N[C@@H](C)C(=O)N[C@@H](CCC(N)=O)C(=O)N[C@H](C(=O)N[C@@H](C)C(=O)N[C@H](C(=O)N[C@@H](CO)C(=O)NCC(=O)N[C@@H](CCSC)C(=O)N[C@@H](CO)C(=O)N[C@H](C(=O)N[C@@H](Cc1c[nH]c2ccccc12)C(=O)N[C@@H](CO)C(=O)N[C@@H](CCCCN)C(=O)N[C@@H](CCCNC(=N)N)C(=O)N[C@@H](CO)C(=O)N[C@@H](CC(C)C)C(N)=O)[C@@H](C)O)[C@@H](C)CC)[C@@H](C)CC)C(C)C)[C@@H](C)CC)C(C)C)C(=O)O [Ac K(PalmGlu)-PEG12-B7-33] (Ac-K([γGlu-Palmitoyl])[PEG12]VIKLSGRELVRAQIAISGMSTWSKRSL-NH2)
half-life at 400 µg/mL ([2]; human serum 400 µL + 200 µg peptide in 100 µL water, samples 0-480 min, acetonitrile precipitation, RP-HPLC peak area vs time zero, one-phase decay fit, n = 3, duplicate): 1 h | in vitro serum stability, in words ([2]; human serum, RP-HPLC, n = 3 independent experiments): stable in serum over time | α-SMA expression levels versus T-alone-stimulated cells, in words ([3]; peptide 100 ng/mL + T 2 ng/mL, after 7–14 days of culture): fully returned to those measured for T-alone-stimulated cells | α-SMA expression level relative to T-alone-stimulated cells ([3]; peptide 100 ng/mL + T 2 ng/mL, after 5 days, media unchanged, 0.5% FCS): ~ 70% | suppression of TGF-α-induced increase in α-SMA expression ([3]; peptide 100 ng/mL co-administered with T (2 ng/mL), after 72 h of culture, 0.5% FCS, n = 6 in duplicate): almost fully suppressed

Other lines, results leading:

Ki [1]: > 10 µM
Compound: CCCCCCCCCCCCCCCC(=O)NCCCC[C@H](NC(=O)[C@@H](NC(=O)[C@@H](N)C(C)C)[C@@H](C)CC)C(=O)N[C@@H](CC(C)C)C(=O)N[C@@H](CO)C(=O)NCC(=O)N[C@@H](CCCNC(=N)N)C(=O)N[C@@H](CCC(=O)O)C(=O)N[C@@H](CC(C)C)C(=O)N[C@H](C(=O)N[C@@H](CCCNC(=N)N)C(=O)N[C@@H](C)C(=O)N[C@@H](CCC(N)=O)C(=O)N[C@H](C(=O)N[C@@H](C)C(=O)N[C@H](C(=O)N[C@@H](CO)C(=O)NCC(=O)N[C@@H](CCSC)C(=O)N[C@@H](CO)C(=O)N[C@H](C(=O)N[C@@H](Cc1c[nH]c2ccccc12)C(=O)N[C@@H](CO)C(=O)N[C@@H](CCCCN)C(=O)N[C@@H](CCCNC(=N)N)C(=O)N[C@@H](CO)C(=O)N[C@@H](CC(C)C)C(N)=O)[C@@H](C)O)[C@@H](C)CC)[C@@H](C)CC)C(C)C [B7-33_9K(Palm)] (H-VIK(Palmitoyl)LSGRELVRAQIAISGMSTWSKRSL-NH2; N-terminus assumed)

Ki [1]: > 10 µM
Compound: CCCCCCCCCCCCCCCC(=O)NCCOCCOCCOCCOCCOCCOCCC(=O)N[C@H](C(=O)N[C@H](C(=O)N[C@@H](CCCCN)C(=O)N[C@@H](CC(C)C)C(=O)N[C@@H](CO)C(=O)NCC(=O)N[C@@H](CCCNC(=N)N)C(=O)N[C@@H](CCC(=O)O)C(=O)N[C@@H](CC(C)C)C(=O)N[C@H](C(=O)N[C@@H](CCCNC(=N)N)C(=O)N[C@@H](C)C(=O)N[C@@H](CCC(N)=O)C(=O)N[C@H](C(=O)N[C@@H](C)C(=O)N[C@H](C(=O)N[C@@H](CO)C(=O)NCC(=O)N[C@@H](CCSC)C(=O)N[C@@H](CO)C(=O)N[C@H](C(=O)N[C@@H](Cc1c[nH]c2ccccc12)C(=O)N[C@@H](CO)C(=O)N[C@@H](CCCCN)C(=O)N[C@@H](CCCNC(=N)N)C(=O)N[C@@H](CO)C(=O)N[C@@H](CC(C)C)C(N)=O)[C@@H](C)O)[C@@H](C)CC)[C@@H](C)CC)C(C)C)[C@@H](C)CC)C(C)C [Palmitic acid-PEG6-B7-33] ({Palmitoyl-PEG6}-VIKLSGRELVRAQIAISGMSTWSKRSL-NH2)
